Several values for one entry are separate records, joined by “and”; a condition that tells them apart may be missing. Equal values may be shown once. Read-outs that look alike come from different tables or passages of the source. Marks after values point to notes of the source that are not given here.
Tested on: patients with ALS
[1] = 50 mg, through the end of the study
[2] = 300 mg, No Riluzole Use, through Week 28
[3] = 300 mg, Riluzole Use, through Week 28
[4] = 300 mg, any post-baseline visit
[5] = 300 mg, double-blind treatment period
[6] = 300 mg, through the end of the study
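Note: adverse event data gathered at every clinic visit and phone contact, after first study drug dose, in a blinded trial, counts of affected subjects.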

CCCN[C@@H]1CCc2nc(N)sc2C1 [dexpramipexole, (6R)-2-amino-4,5,6,7-tetrahydro-6-(propylamino)benzothiazole]
≧1 serious treatment-related TEAE [1]: 1 (2%) N (%)
≧1 severe TEAE [1]: 13 N (%) and 13 (27%) N (%)
≧1 treatment-related TEAE [1]: 16 (33%) N (%)
subjects with increase from baseline in QTcF >30 msec (300 mg): 5 subjects
AE: Anxiety [2]: 1 (7%) N (%)
AE: Depression [2]: 1 (7%) N (%)
AE: Dysarthria [2]: 2 (13%) N (%)
AE: Dysphagia [2]: 2 (13%) N (%)
AE: Fall [2]: 4 (27%) N (%)
AE: Muscular weakness [2]: 3 (20%) N (%)
AE: Nausea [2]: 0 N (%)
AE: Oedema peripheral [2]: 0 N (%)
AE: Pharyngolaryngeal pain [2]: 1 (7%) N (%)
AE: Salivary hypersecretion [2]: 2 (13%) N (%)
AE: Sinusitis [2]: 0 N (%)
AE: Urinary tract infection [2]: 1 (7%) N (%)
AE: Anxiety [3]: 4 (14%) N (%)
AE: Depression [3]: 4 (14%) N (%)
AE: Dysarthria [3]: 3 (10%) N (%)
AE: Dysphagia [3]: 2 (7%) N (%)
AE: Fall [3]: 7 (24%) N (%)
AE: Headache [3]: 2 N (%) and 2 (7%) N (%)
AE: Muscular weakness [3]: 4 (14%) N (%)
AE: Oedema peripheral [3]: 1 (3%) N (%)
AE: Pharyngolaryngeal pain [3]: 2 (7%) N (%)
AE: Salivary hypersecretion [3]: 3 (10%) N (%)
AE: Urinary tract infection [3]: 3 (10%) N (%)
incidence of ECGs with QTcB increased >30 msec from baseline [4]: 30%
subjects with QTcF interval >450 msec [4]: 3 subjects
AEs related to ALS as assessed by the Investigator [5]: 80%
hemoglobin value in 1 subject (potentially clinically significant) [5]: 7.8 g/dL
subjects with prolonged QTcB [5]: 3 subjects
subjects with serum chemistry abnormalities of potential clinical significance [5]: 4 subjects
neutrophil count in 1 subject with neutropenia (300 mg, noted at baseline of the placebo washout period): 1180 µL⁻¹
ALS-related TEAE: Affect liability (300 mg, through Week 28): 0 N (%)
ALS-related TEAE: Arthralgia (300 mg, through Week 28): 1 (2%) N (%)
ALS-related TEAE: Choking (300 mg, through Week 28): 0 N (%)
ALS-related TEAE: Constipation (300 mg, through Week 28): 4 (9%) N (%)
ALS-related TEAE: Contusion (300 mg, through Week 28): 1 (2%) N (%)
ALS-related TEAE: Dehydration (300 mg, through Week 28): 2 (5%) N (%)
ALS-related TEAE: Depression (300 mg, through Week 28): 1 (2%) N (%)
ALS-related TEAE: Disease progression (300 mg, through Week 28): 2 (5%) N (%)
ALS-related TEAE: Dysarthria (300 mg, through Week 28): 5 (11%) N (%)
ALS-related TEAE: Dysphagia (300 mg, through Week 28): 3 (7%) N (%)
ALS-related TEAE: Dysphasia (300 mg, through Week 28): 1 (2%) N (%)
ALS-related TEAE: Dyspnoea (300 mg, through Week 28): 5 (11%) N (%)
ALS-related TEAE: Dyspnoea exertional (300 mg, through Week 28): 2 (5%) N (%)
ALS-related TEAE: Fall (300 mg, through Week 28): 10 (23%) N (%)
ALS-related TEAE: Fatigue (300 mg, through Week 28): 2 (5%) N (%)
ALS-related TEAE: Gastrointestinal Disorders (300 mg, through Week 28): 11 (25%) N (%)
ALS-related TEAE: General Disorders and Administration Site Conditions (300 mg, through Week 28): 6 (14%) N (%)
ALS-related TEAE: Increased upper airway secretion (300 mg, through Week 28): 2 (5%) N (%)
ALS-related TEAE: Injury, Poisoning and Procedural Complications (300 mg, through Week 28): 10 (23%) N (%)
ALS-related TEAE: Investigations (300 mg, through Week 28): 5 (11%) N (%)
ALS-related TEAE: Metabolism and Nutrition Disorders (300 mg, through Week 28): 4 (9%) N (%)
ALS-related TEAE: Muscle contractions involuntary (300 mg, through Week 28): 2 (5%) N (%)
ALS-related TEAE: Muscle spasticity (300 mg, through Week 28): 1 (2%) N (%)
ALS-related TEAE: Muscle twitching (300 mg, through Week 28): 2 (5%) N (%)
ALS-related TEAE: Muscular weakness (300 mg, through Week 28): 7 (16%) N (%)
ALS-related TEAE: Musculoskeletal and Connective Tissue Disorders (300 mg, through Week 28): 14 (32%) N (%)
ALS-related TEAE: Musculoskeletal pain (300 mg, through Week 28): 3 (7%) N (%)
ALS-related TEAE: Myalgia (300 mg, through Week 28): 0 N (%)
ALS-related TEAE: Neck pain (300 mg, through Week 28): 1 (2%) N (%)
ALS-related TEAE: Nervous System Disorders (300 mg, through Week 28): 10 (23%) N (%)
ALS-related TEAE: Oedema peripheral (300 mg, through Week 28): 1 (2%) N (%)
ALS-related TEAE: Pain in extremity (300 mg, through Week 28): 0 N (%)
ALS-related TEAE: Psychiatric Disorders (300 mg, through Week 28): 1 (2%) N (%)
ALS-related TEAE: Respiratory failure (300 mg, through Week 28): 0 N (%)
ALS-related TEAE: Respiratory, Thoracic and Mediastinal Disorders (300 mg, through Week 28): 11 (25%) N (%)
ALS-related TEAE: Salivary hypersecretion (300 mg, through Week 28): 5 (11%) N (%)
ALS-related TEAE: Vital capacity decreased (300 mg, through Week 28): 1 (2%) N (%)
ALS-related TEAE: Weight decreased (300 mg, through Week 28): 2 (5%) N (%)
Number of TEAEs (300 mg, through Week 28): 303
Number of serious TEAEs (300 mg, through Week 28): 9
Number of serious treatment-related TEAE (300 mg, through Week 28): 1
Number of severe TEAEs (300 mg, through Week 28): 12
Number of treatment-related TEAEs (300 mg, through Week 28): 46
Subjects with a TEAE with action taken of study drug discontinued (300 mg, through Week 28): 0 N (%)
TEAE: Anxiety (300 mg, through Week 28): 5 (11%) N (%)
TEAE: Arthralgia (300 mg, through Week 28): 3 (7%) N (%)
TEAE: Cardiac Disorders (300 mg, through Week 28): 8 (18%) N (%)
TEAE: Constipation (300 mg, through Week 28): 11 (25%) N (%)
TEAE: Cough (300 mg, through Week 28): 5 (11%) N (%)
TEAE: Dehydration (300 mg, through Week 28): 3 (7%) N (%)
TEAE: Depression (300 mg, through Week 28): 5 (11%) N (%)
TEAE: Dizziness (300 mg, through Week 28): 3 (7%) N (%)
TEAE: Dysarthria (300 mg, through Week 28): 5 (11%) N (%)
TEAE: Dysphagia (300 mg, through Week 28): 4 (9%) N (%)
TEAE: Dyspnoea (300 mg, through Week 28): 6 (14%) N (%)
TEAE: Fall (300 mg, through Week 28): 11 (25%) N (%)
TEAE: Fatigue (300 mg, through Week 28): 2 (5%)^a N (%) and 2 (5%) N (%)
TEAE: Gastrointestinal Disorders (300 mg, through Week 28): 25 (57%) N (%)
TEAE: General Disorders and Administration Site Conditions (300 mg, through Week 28): 12 (27%) N (%)
TEAE: Headache (300 mg, through Week 28): 6 (14%) N (%)
TEAE: Hyperglycaemia (300 mg, through Week 28): 3 (7%) N (%)
TEAE: Infections and Infestations (300 mg, through Week 28): 17 (39%) N (%)
TEAE: Injury, Poisoning and Procedural Complication (300 mg, through Week 28): 12 (27%) N (%)
TEAE: Metabolism and Nutrition Disorders (300 mg, through Week 28): 8 (18%) N (%)
TEAE: Muscle contractions involuntary (300 mg, through Week 28): 2 (5%)^a N (%) and 2 (5%) N (%)
TEAE: Muscle spasticity (300 mg, through Week 28): 1 (2%) N (%)
TEAE: Musculoskeletal and Connective Tissue Disorders (300 mg, through Week 28): 19 (43%) N (%)
TEAE: Musculoskeletal pain (300 mg, through Week 28): 3 (7%) N (%)
TEAE: Nausea (300 mg, through Week 28): 3 (7%) N (%)
TEAE: Neck pain (300 mg, through Week 28): 4 (9%) N (%)
TEAE: Nervous System Disorders (300 mg, through Week 28): 18 (41%) N (%)
TEAE: Oedema peripheral (300 mg, through Week 28): 2 N (%) and 1 (2%) N (%)
TEAE: Pharyngolaryngeal pain (300 mg, through Week 28): 3 (7%) N (%)
TEAE: Pneumonia (300 mg, through Week 28): 1 (2%) N (%)
TEAE: Pruritus (300 mg, through Week 28): 0 N (%)
TEAE: Psychiatric Disorders (300 mg, through Week 28): 14 (32%) N (%)
TEAE: Rash (300 mg, through Week 28): 3 (7%) N (%)
TEAE: Respiratory failure (300 mg, through Week 28): 1 (2%) N (%)
TEAE: Respiratory, Thoracic and Mediastinal Disorders (300 mg, through Week 28): 18 (41%) N (%)
TEAE: Salivary hypersecretion (300 mg, through Week 28): 5 (11%) N (%)
TEAE: Sinusitis (300 mg, through Week 28): 5 (11%) N (%)
TEAE: Skin and Subcutaneous Tissue Disorders (300 mg, through Week 28): 8 (18%) N (%)
TEAE: Tachycardia (300 mg, through Week 28): 4 (9%) N (%)
TEAE: Upper respiratory tract infection (300 mg, through Week 28): 3 (7%) N (%)
TEAE: Urinary tract infection (300 mg, through Week 28): 4 (9%) N (%)
TEAE: Vomiting (300 mg, through Week 28): 0 N (%)
serious TEAE: Acute myocardial infarction (300 mg, through Week 28): 0 N (%)
serious TEAE: Atrial fibrillation (300 mg, through Week 28): 1 (2%) N (%)
serious TEAE: Blood and Lymphatic System Disorders (300 mg, through Week 28): 1 (2%) N (%)
serious TEAE: Cardiac Disorders (300 mg, through Week 28): 1 (2%) N (%)
serious TEAE: Cardiac failure congestive (300 mg, through Week 28): 0 N (%)
serious TEAE: Cholecystitis acute (300 mg, through Week 28): 1 (2%) N (%)
serious TEAE: Concussion (300 mg, through Week 28): 1 (2%) N (%)
serious TEAE: Disease progression (300 mg, through Week 28): 0 N (%)
serious TEAE: Dyspnoea (300 mg, through Week 28): 0 N (%)
serious TEAE: Fall (300 mg, through Week 28): 1 (2%) N (%)
serious TEAE: Gastrointestinal Disorders (300 mg, through Week 28): 0 N (%)
serious TEAE: General Disorders and Administration Site Conditions (300 mg, through Week 28): 0 N (%)
serious TEAE: Hepatobiliary Disorders (300 mg, through Week 28): 1 (2%) N (%)
serious TEAE: Ileus (300 mg, through Week 28): 0 N (%)
serious TEAE: Infections and Infestations (300 mg, through Week 28): 1 (2%) N (%)
serious TEAE: Injury, Poisoning and Procedural Complications (300 mg, through Week 28): 1 (2%) N (%)
serious TEAE: Neutropenia (300 mg, through Week 28): 1 (2%) N (%)
serious TEAE: Pneumonia (300 mg, through Week 28): 1 (2%) N (%)
serious TEAE: Pneumonia aspiration (300 mg, through Week 28): 1 (2%) N (%)
serious TEAE: Pneumonia bacterial (300 mg, through Week 28): 0 N (%)
serious TEAE: Pulmonary embolism (300 mg, through Week 28): 0 N (%)
serious TEAE: Respiratory distress (300 mg, through Week 28): 0 N (%)
serious TEAE: Respiratory failure (300 mg, through Week 28): 1 (2%) N (%)
serious TEAE: Respiratory, Thoracic and Mediastinal Disorders (300 mg, through Week 28): 2 (5%) N (%)
serious TEAE: Subdural haematoma (300 mg, through Week 28): 1 (2%) N (%)
serious TEAE: Sudden death (300 mg, through Week 28): 0 N (%)
serious TEAE: Viral infection (300 mg, through Week 28): 0 N (%)
≧1 TEAE with an outcome of death (300 mg, through Week 28): 1 N (%) and 1 (2%) N (%)
≧1 serious TEAE (including death) (300 mg, through Week 28): 5 N (%) and 5 (11%) N (%)
≧1 serious treatment-related TEAE (300 mg, through Week 28): 1 (2%) N (%)
≧1 severe TEAE (300 mg, through Week 28): 6 (14%) N (%) and 6 N (%)
Number of TEAEs [6]: 366
Number of serious TEAEs [6]: 17
Number of serious treatment-related TEAEs [6]: 2
Number of severe TEAEs [6]: 23
Number of treatment-related TEAEs [6]: 61
Subjects with a TEAE with action taken of study drug discontinued [6]: 3 N (%) and 3 (7%) N (%)
subjects with TEAEs with an outcome of death (b230 count) [6]: 5 subjects
≧1 TEAE with an outcome of death [6]: 4 N (%) and 4 (9%) N (%)
≧1 serious TEAE (including death) [6]: 11 N (%) and 11 (25%) N (%)
≧1 serious treatment-related TEAE [6]: 2 (5%) N (%)
≧1 severe TEAE [6]: 13 N (%) and 13 (30%) N (%)
≧1 treatment-related TEAE [6]: 18 (41%) N (%)
safety and tolerability (total daily doses of 50 mg and 300 mg, ALS subjects): safe and well tolerated

From patent US20130245081A1, “Compositions and Methods for Treating Amyotrophic Lateral Sclerosis” (priority 2009, published 2013)
